Earlier results as cited in US20230243814A1, “CHEMICAL CLAS[…] AND METHOD FOR PLANTS” (priority 2020, published 2023).
Where two headings read alike, the source gives them in different places.

Legend:
[1] = test system: brain wave (EEG) activity; conditions: for beta wave activity (EEG) / alpha wave activity (EEG) / beta and other absolute wave activity (EEG): inhalation; for alpha wave boost: focus / beta wave boost: creativity: relative magnitude in words; on alpha wave activity (EEG): test concentration or dose not given here; on beta and other absolute wave activity (EEG): test concentration or dose not given here; on beta wave activity (EEG): test concentration or dose not given here
[2] = molecular target: AChE (acetylcholinesterase) (Homo sapiens, UniProt P22303); conditions: relative magnitude of the activity in words
AChE (acetylcholinesterase), sequence (P22303 32-614, species assumed): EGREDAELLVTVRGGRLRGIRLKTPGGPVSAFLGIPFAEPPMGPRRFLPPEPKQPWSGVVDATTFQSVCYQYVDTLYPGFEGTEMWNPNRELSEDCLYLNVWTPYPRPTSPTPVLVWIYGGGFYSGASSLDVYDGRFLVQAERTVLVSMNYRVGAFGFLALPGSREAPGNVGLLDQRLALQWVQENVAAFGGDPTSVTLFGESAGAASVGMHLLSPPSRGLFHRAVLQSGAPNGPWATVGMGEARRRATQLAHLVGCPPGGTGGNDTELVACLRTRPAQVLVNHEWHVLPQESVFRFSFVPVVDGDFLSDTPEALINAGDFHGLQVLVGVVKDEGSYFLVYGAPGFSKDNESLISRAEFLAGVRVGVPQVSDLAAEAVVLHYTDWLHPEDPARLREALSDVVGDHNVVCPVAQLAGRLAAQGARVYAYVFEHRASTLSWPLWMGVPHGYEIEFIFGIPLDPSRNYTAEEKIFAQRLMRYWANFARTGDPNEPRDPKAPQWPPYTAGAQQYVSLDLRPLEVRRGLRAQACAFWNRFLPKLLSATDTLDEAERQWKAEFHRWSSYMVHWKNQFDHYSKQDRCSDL

[3] = relative magnitude of the activity in words
[4] = relative magnitude of the activity in words; remark: listed apart in the source
[5] = relative magnitude of the activity in words; remark: listed apart in the source
[6] = relative magnitude of the activity in words; remark: listed apart in the source
[7] = relative magnitude of the activity in words; remark: listed apart in the source
[8] = relative magnitude of the activity in words; remark: listed apart in the source
GABA A = conditions: relative magnitude of the activity in words
[9] = relative magnitude of the activity in words; remark: listed apart in the source

Compound	AChEl [2]	antinociceptive pain blocker [3]	analgesic pain relief [4]	sedative [5]	other results
C=C(C)C1CC=C(C)CC1 (single isomer, unassigned; (+)) [(+) limonene]					beta wave activity (EEG) ([1]; all subjects): increase relative high beta wave activity; alpha wave activity (EEG) ([1]; men): no increase in alpha wave activity; beta and other absolute wave activity (EEG) ([1]; men): relative high beta activity increase; alpha wave activity (EEG) ([1]; women): increased absolute fast alpha wave activity; beta wave activity (EEG) ([1]; women): decreased relative mid beta wave activity
CC1=CCC2C(C1)C2(C)C (centres unmarked) [3 carene]	very strong	no notable	no notable		
CC(C)=CCC[C@](C)(O)[C@@H]1CC=C(C)CC1 [a bisabolol]	no notable	very strong	no notable	no notable	muscle relaxant [6]: very strong
C=C/C(C)=C/C/C=C(\C)CCC=C(C)C [alpha farnesene]		no notable	no notable		
CC1=CC[C@H](C(C)C)C=C1 [alpha phellandrene]	no notable	very strong	moderate	no notable	anti depressant [7]: moderate
CC1=CCC2CC1C2(C)C (stereo not drawn) [alpha pinene]	very strong	no notable	weak	agonistic	anti depressant [7]: moderate; anti anxiety [8]: moderate; alpha wave boost: focus ([1]; no gender qualifier): moderate; beta wave boost: creativity ([1]; women only): very strong; GABA A Modulation (GABA A): moderate; motor stimulation (EPM) [9]: moderate
CC1=CC=C(C(C)C)CC1 [alpha terpinene]	very strong	no notable			
CC1=CC[C@@H](C(C)(C)O)CC1 [alpha terpineol]	no notable	very strong	very strong	moderate	muscle relaxant [6]: very strong
C=C1CC/C=C(\C)CC[C@@H]2[C@@H]1CC2(C)C [beta caryophyllene]	no notable	no notable	moderate	no notable	anti depressant [7]: moderate; anti anxiety [8]: moderate
C=CC(=C)CC/C=C(\C)CCC=C(C)C [beta farnesene]		no notable	no notable		
C=CC(=C)CCC=C(C)C [beta myrcene]	no notable	no notable	moderate	weak	muscle relaxant [6]: moderate
C=C/C(C)=C/CC=C(C)C [beta ocimene]	very strong	no notable	no notable		
C=C1CCC2CC1C2(C)C (stereo not drawn) [beta pinene]	no notable	no notable	moderate	moderate	anti depressant [7]: moderate; beta wave boost: creativity ([1]; women only): very strong
C=C1C2CCC(C2)C1(C)C (centres unmarked) [camphene]	no notable	no notable	no notable	moderate	
CC12CCC(CC1)C(C)(C)O2 [eucalyptol]	very strong	no notable			
C=CCc1ccc(O)c(OC)c1 [eugenol]		very strong			
CC12CCC(C1)C(C)(C)C2O (centres unmarked) [fenchol]	no notable	no notable	no notable	moderate	
C[C@H]1CC[C@@H](C(C)(C)O)CC2=C1CC[C@@H]2C [guiaol]	no notable	no notable		no notable	
C/C1=C\CC/C(C)=C/CC(C)(C)/C=C/C1 [humulene]	no notable	no notable	no notable	no notable	
C=C(C)[C@H]1CC=C(C)CC1 [limonene]	agonistic	no notable	moderate		anti depressant [7]: moderate; beta wave boost: creativity ([1]; women only): very strong
C=CC(C)(O)CCC=C(C)C (centres unmarked) [linalool]	no notable	very strong	moderate	very strong	anti depressant [7]: very strong; anti anxiety [8]: very strong; GABA A Modulation (GABA A): very strong
C=CC(C)(O)CCC=C(C)CCC=C(C)C (centres unmarked) [nerolidol]	no notable	very strong	moderate	very strong	anti anxiety [8]: very strong
CC1=CCC(=C(C)C)CC1 [terpinolene]	no notable	no notable	no notable	weak	muscle relaxant [6]: moderate; alpha wave activity (EEG) ([1]; all subjects): increase relative fast alpha wave activity; beta wave activity (EEG) ([1]; all subjects): decrease mid beta wave activity; alpha wave activity (EEG) ([1]; men): no increase in alpha wave activity; beta and other absolute wave activity (EEG) ([1]; men): decrease in relative mid beta wave activity; alpha wave activity (EEG) ([1]; women): increased absolute fast alpha wave activity; alpha wave boost: focus ([1]; women only): very strong
(+) alpha pinene					alpha wave activity (EEG) ([1]; men): no impact on alpha waves; beta and other absolute wave activity (EEG) ([1]; men): significant decreases in absolute waves such as theta, beta, low beta and high beta; alpha wave activity (EEG) ([1]; women): significantly (P<0.05) increased; beta wave activity (EEG) ([1]; women): absolute beta wave and absolute high beta wave activity significantly (P<0.05) increased
(+) beta pinene					alpha wave activity (EEG) ([1]; men): no impact on alpha waves; beta and other absolute wave activity (EEG) ([1]; men): no significant changes in the absolute waves; alpha wave activity (EEG) ([1]; women): significantly increased; beta wave activity (EEG) ([1]; women): significantly increased
